Results from PubChem BioAssay (NCI).
Values joined by “and” are separate entries in the source; they are usually repeats but may differ in a detail not shown here. Equal entries are not always repeated.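 Cells were grown in 96-well plates and exposed to each compound for 48 hours at five concentrations; endpoints were interpolated linearly between bracketing concentrations, or set to the highest concentration if not reached. GI50: concentration for 50% inhibition of growth. TGI: concentration producing complete growth inhibition.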

How the values were obtained:
Test in all cases: NCI anticancer screen, dose series, 48 h
OVCAR-3 ovarian = system: OVCAR-3 ovarian
SR leukemia = system: SR leukemia
MALME-3M melanoma = system: MALME-3M melanoma
OVCAR-8 ovarian = system: OVCAR-8 ovarian
SN12C renal = system: SN12C renal
NCI-H522 lung = system: NCI-H522 lung
ACHN renal = system: ACHN renal
HT29 colon = system: HT29 colon
HCT-15 colon = system: HCT-15 colon
RPMI-8226 leukemia = system: RPMI-8226 leukemia

Structure (SMILES) | GI50 (OVCAR-3 ovarian) | TGI (OVCAR-3 ovarian) | GI50 (SR leukemia) | TGI (SR leukemia) | GI50 (MALME-3M melanoma) | TGI (MALME-3M melanoma) | GI50 (OVCAR-8 ovarian) | TGI (OVCAR-8 ovarian) | GI50 (SN12C renal) | TGI (SN12C renal) | GI50 (NCI-H522 lung) | TGI (NCI-H522 lung) | GI50 (ACHN renal) | TGI (ACHN renal) | GI50 (HT29 colon) | TGI (HT29 colon) | GI50 (HCT-15 colon) | TGI (HCT-15 colon) | GI50 (RPMI-8226 leukemia) | TGI (RPMI-8226 leukemia)
Cc1ccc(S(=O)(=O)OCC#CCOS(=O)(=O)c2ccc(C)cc2)cc1 | 1.85 µM | 3.36 µM | 1.27 µM | 3.89 µM | 1.97 µM | 4.1 µM | 2.45 µM | > 21.5 µM | 3.89 µM | 17.3 µM | 1.19 µM | 3.12 µM | 2.27 µM | 5.94 µM | 1.87 µM | 4.17 µM | 3.2 µM | 14.9 µM | 1.85 µM | 4.42 µM
Nc1c(C(=O)Nc2ccccn2)sc2nc3c(cc12)C(O)CCC3 (stereo not drawn) | 1.35 µM | 4.11 µM | 0.179 µM | > 50 µM | 19.3 µM | > 50 µM | 2.19 µM | > 50 µM | 2.57 µM | > 50 µM | 0.815 µM | 2.02 µM | 10.7 µM | > 50 µM | 1.55 µM | > 50 µM | 1.69 µM | > 50 µM | 1.84 µM | > 50 µM
O=c1c2ccccc2[nH]c2c(O)ccc(O)c12 |  | 36.1 µM |  | 39.2 µM |  | 59.7 µM |  | 35.2 µM |  | 28.5 µM |  | 29 µM |  | 33.7 µM |  | > 84.9 µM |  | 37.2 µM |  | 70.1 µM
Cc1cc(-c2nnc(/C=C/c3ccc4c(c3)OCO4)o2)n[nH]1 | 4.6 µM | 20.7 µM | 2.39 µM | 48.3 µM | 8.96 µM | > 50 µM | 22.8 µM | > 50 µM | 30 µM | > 50 µM | 8.15 µM | 26.7 µM | 27.2 µM | > 50 µM | 13.8 µM | 43.4 µM | 11.4 µM | > 50 µM | 2.99 µM | 32 µM
O=C1CC[C@H](N2Cc3c(OCc4ccc(CN5CCOCC5)cc4)cccc3C2=O)C(=O)N1 | > 100 µM | > 100 µM | 4.83 µM | > 100 µM | > 100 µM | > 100 µM | > 100 µM | > 100 µM | > 100 µM | > 100 µM | > 100 µM | > 100 µM | > 100 µM | > 100 µM | > 100 µM | > 100 µM | > 100 µM | > 100 µM | > 100 µM | > 100 µM
N#Cc1ccc(-c2c(-c3ncn[nH]3)sc(N3CCOCC3)c2C#N)c(F)c1 | 0.502 µM | 7.89 µM | 1.88 µM | 19.8 µM | 0.275 µM | 6 µM | 1.85 µM | > 100 µM | 0.835 µM | > 100 µM | 1.17 µM | 15 µM | 0.398 µM |  | 0.363 µM | 18.3 µM | 0.596 µM | 18.5 µM | 4.5 µM | 48.6 µM
CC1=C(/C=C/C(=O)CC(=O)/C=C/C2=C(C)CCCC2(C)C)C(C)(C)CCC1 | 32.1 µM | > 100 µM | 11.9 µM | 40.4 µM | 38.1 µM | > 100 µM | 30.3 µM | > 100 µM | 40.3 µM | > 100 µM | 26.5 µM | > 100 µM | 34.3 µM | > 100 µM | 28.3 µM | > 100 µM | 30.8 µM | > 100 µM | 14.9 µM | 40.8 µM
CCOC(=O)Nc1nc2ccccc2[nH]1 | 4.09 µM and 2.19 µM | 20.4 µM and 5.61 µM | 2.64 µM and 1.1 µM | > 100 µM | 5.18 µM | > 100 µM | 7.6 µM and 7.04 µM | > 100 µM |  | > 100 µM | 3.78 µM and 4.99 µM | > 79.3 µM | 6.56 µM | > 100 µM | 3.96 µM and 3.99 µM | > 100 µM | 3.89 µM and 4.14 µM | > 100 µM | 4.13 µM and 2.26 µM | > 100 µM
COc1cc(Cl)cc(-c2nn(-c3cccc(NC(=O)Nc4cccc(C(F)(F)F)c4)c3)cc2-c2ccncc2)c1 | 0.592 µM | 4.62 µM | 1.14 µM | 4.39 µM | 1.79 µM | 5.91 µM | 1.12 µM | 4.88 µM | 2.06 µM | 18.5 µM | 0.455 µM | 2.51 µM | 1.72 µM | 16.2 µM | 1.51 µM | 6.24 µM | 1.34 µM | 10.6 µM | 0.43 µM | 2.3 µM
C1OC1CN1CCN(CC2CO2)CC1 (stereo not drawn) |  | > 100 µM |  | 23.3 µM |  | > 100 µM |  | > 100 µM |  | > 100 µM |  | > 100 µM |  | > 100 µM |  | > 100 µM |  | > 100 µM |  | > 100 µM
Cc1ccc(C(=O)NCCCOc2ccc(N3C(N)=NC(N)=NC3(C)C)cc2Cl)cc1S(=O)(=O)F | > 100 µM | > 100 µM | > 100 µM | > 100 µM | > 100 µM | > 100 µM | 85.8 µM | > 100 µM | 6.54 µM | > 100 µM | 61.7 µM | > 100 µM | > 100 µM | > 100 µM | 6.61 µM | > 100 µM | > 100 µM | > 100 µM | 24.7 µM | > 100 µM
CCCCCCCCCCCCCCCCCCNCc1ccc(Cl)cc1 | 3.07 µM | 11 µM | 2.08 µM | 6.58 µM | 7.37 µM | 22.6 µM | 4.08 µM | 16.6 µM | 3.63 µM | 13.8 µM | 2.52 µM | 8.73 µM | 2.15 µM | 5.54 µM | 1.73 µM | 3.46 µM | 1.93 µM | 4.71 µM | 2.24 µM | 5.71 µM
